Counter-ions that a name gives are not always drawn.
Key:
Test in all cases: relative viability vs DMSO control (72 h) (fraction); higher = more viable cells
SW872 = system: SW872
Summary of the method: (§1)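 A 5 µM positive control and 0.1% DMSO vehicle ran alongside sarcoma cell lines seeded in 384-well plates to reach 80–90% confluence. Serially diluted compound, 2.5 µl from source plates of 10 mM to 0.0002 mM, was added after 24 h, and the plates were held 72 h at 37 °C, 5% CO2. Relative viability was worked out from ATPLite readings as percent growth averaged over up to triplicate wells. The values were rescaled so that 1 is full and 0 is none.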

KHOS-240S = system: KHOS-240S
Summary of the method: as §1

SK-LMS-1 = system: SK-LMS-1
Summary of the method: as §1

SW1353 = system: SW1353
Summary of the method: as §1

RD-ES = system: RD-ES
Summary of the method: as §1

HT1080 = system: HT1080
Summary of the method: as §1

RD = system: RD
Summary of the method: as §1

SYO-1 = system: SYO-1
Summary of the method: as §1

G401 = system: G401
Summary of the method: as §1

HS729 = system: HS729
Summary of the method: as §1

SW684 = system: SW684
Summary of the method: as §1

KHOS-NP = system: KHOS-NP
Summary of the method: as §1

C=C1C[C@@H]2CC[C@@]34C[C@H]5O[C@H]6[C@@H](O3)[C@H]3O[C@H](CC[C@@H]3O[C@H]6[C@H]5O4)CC(=O)C[C@@H]3[C@@H](OC)[C@@H](C[C@H](O)CN)O[C@H]3C[C@H]3O[C@@H](CC[C@@H]1O2)C[C@@H](C)C3=C [Eribulin Mesylate]
Settings	relative viability
G401, 1.37 pM	1.08
G401, 4.1 pM	1.06
G401, 12.3 pM	1.06
G401, 37 pM	0.814
G401, 0.00011 µM	0.736
G401, 0.00033 µM	0.604
G401, 0.001 µM	0.513
G401, 0.003 µM	0.452
G401, 0.009 µM	0.417
G401, 0.027 µM	0.366
G401, 460 fM	1.05
HS729, 1.37 pM	1.04
HS729, 4.1 pM	0.987
HS729, 12.3 pM	0.965
HS729, 37 pM	0.874
HS729, 0.00011 µM	0.835
HS729, 0.00033 µM	0.756
HS729, 0.001 µM	0.6663
HS729, 0.003 µM	0.583
HS729, 0.009 µM	0.519
HS729, 0.027 µM	0.48
HS729, 460 fM	1.08
HT1080, 1.37 pM	1.1
HT1080, 4.1 pM	1.08
HT1080, 12.3 pM	1
HT1080, 37 pM	0.959
HT1080, 0.00011 µM	0.779
HT1080, 0.00033 µM	0.178
HT1080, 0.001 µM	0.08945
HT1080, 0.003 µM	0.06
HT1080, 0.009 µM	0.0428
HT1080, 0.027 µM	0.043
HT1080, 460 fM	1.054
KHOS-240S, 1.37 pM	1.11
KHOS-240S, 4.1 pM	1.09
KHOS-240S, 12.3 pM	1.1
KHOS-240S, 37 pM	0.9987
KHOS-240S, 0.00011 µM	0.655
KHOS-240S, 0.00033 µM	0.504
KHOS-240S, 0.001 µM	0.365
KHOS-240S, 0.003 µM	0.245
KHOS-240S, 0.009 µM	0.179
KHOS-240S, 0.027 µM	0.15
KHOS-240S, 460 fM	1.07
KHOS-NP, 1.37 pM	1.11
KHOS-NP, 4.1 pM	1.119
KHOS-NP, 12.3 pM	1.113
KHOS-NP, 37 pM	1.11
KHOS-NP, 0.00011 µM	1.1
KHOS-NP, 0.00033 µM	1.05
KHOS-NP, 0.001 µM	0.922
KHOS-NP, 0.003 µM	0.669
KHOS-NP, 0.009 µM	0.479
KHOS-NP, 0.027 µM	0.438
KHOS-NP, 460 fM	1.1
RD, 1.37 pM	1.069
RD, 4.1 pM	1.041
RD, 12.3 pM	0.9352
RD, 37 pM	0.683
RD, 0.00011 µM	0.442
RD, 0.00033 µM	0.268
RD, 0.001 µM	0.254
RD, 0.003 µM	0.247
RD, 0.009 µM	0.273
RD, 0.027 µM	0.254
RD, 460 fM	1.07
RD-ES, 1.37 pM	1.04
RD-ES, 4.1 pM	1.02
RD-ES, 12.3 pM	0.953
RD-ES, 37 pM	0.472
RD-ES, 0.00011 µM	0.0831
RD-ES, 0.00033 µM	0.0672
RD-ES, 0.001 µM	0.041
RD-ES, 0.003 µM	0.0209
RD-ES, 0.009 µM	0.0188
RD-ES, 0.027 µM	0.0232
RD-ES, 460 fM	1.02
SK-LMS-1, 1.37 pM	0.971
SK-LMS-1, 4.1 pM	0.952
SK-LMS-1, 12.3 pM	0.909
SK-LMS-1, 37 pM	0.819
SK-LMS-1, 0.00011 µM	0.708
SK-LMS-1, 0.00033 µM	0.52
SK-LMS-1, 0.001 µM	0.482
SK-LMS-1, 0.003 µM	0.392
SK-LMS-1, 0.009 µM	0.359
SK-LMS-1, 0.027 µM	0.308
SK-LMS-1, 460 fM	0.996
SW684, 1.37 pM	1.16
SW684, 4.1 pM	1.13
SW684, 12.3 pM	1.11
SW684, 37 pM	0.994
SW684, 0.00011 µM	1
SW684, 0.00033 µM	0.865
SW684, 0.001 µM	0.806
SW684, 0.003 µM	0.812
SW684, 0.009 µM	0.822
SW684, 0.027 µM	0.828
SW684, 460 fM	1.15
SW872, 1.37 pM	1.08
SW872, 4.1 pM	1.09
SW872, 12.3 pM	1.06
SW872, 37 pM	0.946
SW872, 0.00011 µM	0.869
SW872, 0.00033 µM	0.8125
SW872, 0.001 µM	0.686
SW872, 0.003 µM	0.567
SW872, 0.009 µM	0.4921
SW872, 0.027 µM	0.429
SW872, 460 fM	1.1
SW1353, 1.37 pM	1.13
SW1353, 4.1 pM	1.08
SW1353, 12.3 pM	1.06
SW1353, 37 pM	0.975
SW1353, 0.00011 µM	0.935
SW1353, 0.00033 µM	0.702
SW1353, 0.001 µM	0.56
SW1353, 0.003 µM	0.497
SW1353, 0.009 µM	0.474
SW1353, 0.027 µM	0.441
SW1353, 460 fM	1.16
SYO-1, 1.37 pM	0.915
SYO-1, 4.1 pM	0.709
SYO-1, 12.3 pM	0.513
SYO-1, 37 pM	0.388
SYO-1, 0.00011 µM	0.323
SYO-1, 0.00033 µM	0.319
SYO-1, 0.001 µM	0.312
SYO-1, 0.003 µM	0.354
SYO-1, 0.009 µM	0.365
SYO-1, 0.027 µM	0.345
SYO-1, 460 fM	1.01

— the supplement of paper PMC10883282
